Source: patent US20060247320A1, “Compounds for inhibiting KSP kinesin activity” (priority 2005, published 2006)

Biological target: T1, KSP motor domain (Homo sapiens, UniProt P52732)
T1 sequence (P52732 18-359 limits assumed): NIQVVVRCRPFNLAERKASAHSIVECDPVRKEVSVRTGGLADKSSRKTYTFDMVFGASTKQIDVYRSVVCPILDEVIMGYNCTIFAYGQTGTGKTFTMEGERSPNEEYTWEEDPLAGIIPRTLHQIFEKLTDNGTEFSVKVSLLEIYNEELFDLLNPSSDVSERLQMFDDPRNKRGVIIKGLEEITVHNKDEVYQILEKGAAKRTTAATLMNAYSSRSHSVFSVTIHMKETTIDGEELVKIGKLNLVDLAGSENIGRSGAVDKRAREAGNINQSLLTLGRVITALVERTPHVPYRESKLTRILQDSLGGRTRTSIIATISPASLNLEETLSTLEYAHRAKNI
Experiment: biochemical
Conditions: KSP inhibitory activity, end-point assay; class symbols (Table 1)

For CC(C)(C)C1CCc2nc3sc(C(=O)NCC(N)=O)cc3cc2C1 (centres unmarked) [Example 81], the “IC50 (nM)” value was “A/B”.

Same assay, conditions: KSP inhibitory activity, end-point assay; class symbols (Table 1); read-out: IC50

Compared with CC(C)(C)C1CCc2nc3sc(C(N)=O)cc3cc2C1 (single isomer, unassigned; (+)) [Example 68, (+)-6-(1,1-dimethylethyl)-5,6,7,8-tetrahydrothieno[2,3-b]quinoline-2-carboxamide], CN(C)C(=O)c1cc2cc3c(nc2s1)CCC(C(C)(C)C)C3 (centres unmarked) [Example 80] is higher in IC50: less than 100 nM for the first, greater than 10000 nM for the second.

CC(C)(C)C1CCc2nc3sc(C(=O)N[C@H](CN)c4cccc(N)c4)cc3cc2C1 (some centres unmarked) [Example 217] and CC(C)(C)C1CCc2nc3sc(C(=O)N[C@H](CN)c4ccc(C#N)cc4)cc3cc2C1 (some centres unmarked) [Example 216] cannot be ordered by IC50: less than 100 nM for the first, less than 100 nM for the second.

First: CC(C)(C)C1CCc2nc3sc(C(N)=O)cc3cc2C1 (centres unmarked) [Example 64, 6-tert-butyl-5,6,7,8-tetrahydrothieno[2,3-b]quinoline-2-carboxylic acid amide]
Second: CC(C)(C)C1CCc2nc3sc(C(=O)NC(CO)C(N)=O)cc3cc2C1 (centres unmarked) [Example 100]
The IC50 of the first is lower: less than 100 nM for the first, 100 to 1000 nM for the second.

CC(C)(C)C1CCc2nc3sc(S(C)(=O)=O)cc3cc2C1 (centres unmarked) [Example 122, 6-tert-Butyl-2-methanesulfonyl-5,6,7,8-tetrahydrothieno[2,3-b]quinoline] and CC(C)(C)C1CCc2nc3sccc3cc2C1 (centres unmarked) [Example 105, 6-tert-Butyl-5,6,7,8-tetrahydrothieno[2,3-b]quinoline] fall in the same range of IC50: 1000 to 10000 nM for the first, 1000 to 10000 nM for the second.

Compared with CC(C)(C)C1CCc2cc3c(N)c(C#N)sc3nc2CC1 (centres unmarked) [Example 41], CC(C)(C)C1CCCc2nc3sc(C#N)c(N)c3cc2C1 (centres unmarked) [Example 40] is lower in IC50: 1000 to 10000 nM for the first, less than 100 nM for the second. The second is the more potent here.

CC(C)CC(C)(C)C1CCc2nc3sc(C#N)c(N)c3cc2C1 (centres unmarked) [Example 8] and CCCCC1CCc2nc3sc(C#N)c(N)c3cc2C1 (centres unmarked) [Example 32] cannot be ordered by IC50: greater than 10000 nM for the first, greater than 10000 nM for the second.

Cn1ccnc1C(=O)Nc1cccc([C@@H](CN)NC(=O)c2cc3cc4c(nc3s2)CC[C@@H](C(C)(C)C)C4)c1 [Example 250] and Cc1cc(C(=O)Nc2cccc([C@@H](CN)NC(=O)c3cc4cc5c(nc4s3)CC[C@@H](C(C)(C)C)C5)c2)nn1C [Example 244] cannot be ordered by IC50: less than 100 nM for the first, less than 100 nM for the second.

Compared with CC(C)(C)C1CCc2nc3sc(C(=O)Nc4ccccc4)cc3cc2C1 (centres unmarked) [Example 77], CC(C)(C)C1CCc2nc3sc(C(=O)Nc4ccc(N)cc4)cc3cc2C1 (centres unmarked) [Example 226F] is lower in IC50: greater than 10000 nM for the first, 100 to 1000 nM for the second. The second is the more potent here.

First: CCC(C)(C)C1CCc2c(cc3cc(C#N)sc3[n+]2[O-])C1 (centres unmarked) [Example 71]
Second: CSc1nc2cc3c(nc2s1)CCC(C(C)(C)C)C3 (centres unmarked) [Example 129, 7-tert-butyl-2-methylsulfanyl-5,6,7,8-tetrahydrothiazolo[5,4-b]quinoline]
The IC50 of the first is lower: 1000 to 10000 nM for the first, greater than 10000 nM for the second.

First: CC(C)(C)C1CCc2nc3sc(C(=O)N[C@H]4CCC[C@@H]4O)cc3cc2C1 (some centres unmarked) [Example 86]
Second: CC(C)(C)C1CCc2nc3sc(C(=O)N4C[C@H](O)C[C@@H]4C(=O)O)cc3cc2C1 (some centres unmarked) [Example 93]
The IC50 of the first is lower: 1000 to 10000 nM for the first, greater than 10000 nM for the second. The first is the more potent here.

First: Cc1onc(-c2ccccc2)c1C(=O)Nc1cccc([C@@H](CN)NC(=O)c2cc3cc4c(nc3s2)CC[C@@H](C(C)(C)C)C4)c1 [Example 230]
Second: CC(C)(C)[C@@H]1CCc2nc3sc(C(=O)N[C@H](CN)c4cccc(NC(=O)c5cc(-c6ccccc6)on5)c4)cc3cc2C1 [Example 234]
The IC50 of the first is higher: 100 to 1000 nM for the first, less than 100 nM for the second.

Cc1cc(C(=O)Nc2cccc([C@@H](CN)NC(=O)c3cc4cc5c(nc4s3)CC[C@@H](C(C)(C)C)C5)c2)n[nH]1 [Example 242] and CC(C)(C)[C@@H]1CCc2nc3sc(C(=O)N[C@H](CN)c4cccc(NCc5ccccc5)c4)cc3cc2C1 [Example 283] cannot be ordered by IC50: less than 100 nM for the first, less than 100 nM for the second.

N#Cc1sc2nc3c(cc2c1N)CN(CCC(F)(F)F)CC3 [Example 57] and CC1(C)CCc2nc3sc(C#N)c(N)c3cc2C1 [Example 47] cannot be ordered by IC50: greater than 10000 nM for the first, greater than 10000 nM for the second.

Same assay, conditions: exact IC50 values, end-point assay (Table 2); read-out: IC50

Compared with CC(C)(C)C1CCc2nc3sc(C(N)=O)cc3cc2C1 (single isomer, unassigned; (+)) [Example 68, (+)-6-(1,1-dimethylethyl)-5,6,7,8-tetrahydrothieno[2,3-b]quinoline-2-carboxamide], CC(C)(C)C1CCCc2nc3sc(C#N)c(N)c3cc2C1 (centres unmarked) [Example 40] is 3-fold higher in IC50: 20 nM for the first, 60 nM for the second. The first is the more potent here.

Cn1ccnc1C(=O)Nc1cccc([C@@H](CN)NC(=O)c2cc3cc4c(nc3s2)CC[C@@H](C(C)(C)C)C4)c1 [Example 250] showed an IC50 of 19 nM.

Same assay, conditions: number printed in brackets under a borderline class (A/B, B/C) in Table 1 of b1103; read-out: IC50

With CC(C)(C)C1CCc2nc3sc(C(=O)NCC(N)=O)cc3cc2C1 (centres unmarked) [Example 81] the IC50 was 100 nM.

System: not given
Experiment: not given
Conditions: not given

Compound CCOC(=O)c1nc2cc3c(nc2s1)CCC(C(C)(C)C)C3 (racemic) has a melting point of 84 to 86 °C.
